The target of data set [1] is T1, HIV-1 capsid protein (Human immunodeficiency virus type 1 group M subtype B, UniProt P12493).
T1 construct: made in house; host or cells: E. coli (pET30 vector)
Briefly: In vitro polymerization of HIV-1 capsid protein (His-CA/GST-CA, Eu cryptate/XL665 energy transfer). It counts as biochemical, HIV-1 NL4-3. From the text: • 1. MAb Anti GST-Eu cryptate (Cisbio) • 2. MAb Anti 6HIS-XL665 (Cisbio) • 3. His tag HIV-1 capsid protein (hereinafter referred to as His-CA) • 4. GST tag HIV-1 capsid protein (hereinafter referred to as GST-CA) • 5. 384-well unbound surface microplate, white (Corning) • 6. Microplate reader (BMG)
The HIV-1 capsid proteins aggregate spontaneously in high-salt solutions. Capsid protein sequences derived from HIV-1 NL4-3 strains (GeneBank AF324493.2) were separately tagged with 6His tag and GST tag sequences at the C-terminus, cloned into pET30 vectors, and expressed and separately tagged for expression in E. coli system and purified. His-CA and GST-CA were mixed at high-salt concentrations, and the level of polymerization of capsid proteins was detected using GST antibody labeled with Eu3+-Cryptate (energy donor) and His antibody labeled with XL665 (energy acceptor). Since the excitation spectrum of Eu3+-Cryptate overlapped with the excitation spectrum of XL665, when the capsid proteins with these two tags formed a poly complex, the energy donor and the energy acceptor could be drawn to a sufficiently close distance, the energy donor released part of the captured energy under the excitation of an external light source (such as a xenon lamp or a laser), with the emission wavelength being 620 nM, part of the resonance was transferred to the energy acceptor to excite the energy acceptor, with the emission wavelength being 665 nM, and an optical signal was generated, the signal intensity of which was in direct proportion to the degree of polymerization of the tag proteins.
His-CA was diluted to 2 μM in a clean tube with protein diluent (50 mM Tris-HCl, pH 8.0, 50 mM NaCl, 0.4 mM MgCl2, 0.05% Triton X-100, 2% glycerol) while MAb Anti 6HIS-XL665 at a final concentration of 260 nM was added; GST-CA was diluted to 20 nM with protein diluent in another clean tube while MAb Anti GST-Eu cryptate at a final concentration of 3.33 nM was added and incubated on ice for half an hour. Compounds were first formulated into a concentration of 20 mM with DMSO, then diluted to a first concentration of 2 mM with DMSO and serially 5-fold diluted to the 8th concentration. Control wells were set and added with DMSO, and serially-diluted compounds were then 20-fold diluted with protein diluent to 10-fold working concentrations. Preparation of capsid protein polymerization liquid at 2-fold concentration: 50 mM Tris-HCl, pH 8.0, 1 M NaCl, 800 mM KF; to a pre-cooled white round-bottomed 384-well plate were added 4 uL of His-CA-His antibody mixture, 4 uL of GST-CA-GST antibody mixture, 2 uL of the compounds at 10-fold concentration and 10 uL of capsid protein polymerization reaction liquid at 2-fold concentration, the plate was sealed with a light-shielding sealing plate membrane after uniformly mixing, and the reaction plate was placed in a 37° C. incubator for incubation for 2 h. After incubation, the samples were excited with an excitation light at 337 nM, and signal values at 620 nM and 665 nM were collected for detection, wherein Ratio values=(665 nM/620 nM signal)×10000 was calculated according to the signal values. IC50 values for compounds were calculated using Graphpad Prism software based on each concentration of the compounds and the corresponding Ratio values.

Data set [2] is described as follows: Thermodynamic stability test of atropisomerism (LC-MS). It counts as physicochemical. On the procedure: Agilent 1200 DAD model LC-MS; column: waters sunfire C18, 4.6×75 mm, 3.5 μm; mobile phase: water (0.1% trifluoroacetic acid):acetonitrile (0.1% trifluoroacetic acid).
The compounds of Examples 1-1a, 1-1b were atropisomers of each other and had different retention times in the LC-MS spectra, and the tautomerism of the atropisomers could be detected by LC-MS.
Compound 1-1a (1.5 mg) was dissolved in acetonitrile (1.0 mL), and the reaction solution was heated at 40° C. for 1.0 h, and the change in purity of compound 1-1a was detected by LC-MS. Compound 1-1a (1.5 mg) was dissolved in dimethyl sulfoxide (1.0 mL), and the reaction solution was heated at 120° C. for 3.0 h, and the change in purity of compound 1-1a was detected by LC-MS.
The same procedure was used to test the change in purity of compound 1-1b at 40° C. and 120° C.
The compounds of Examples 5-1, 5-2 were atropisomers of each other and had different retention times in the LC-MS spectra, and the tautomerism of the atropisomers could be detected by LC-MS.
Compound 5-1 (1.0 mg) was dissolved in DMSO (1.0 mL), and the reaction solution was heated at 37° C. and 120° C. for 3.0 h, respectively, and the change in purity of compound 5-1 was detected by LC-MS.

`CC(C)(C#Cc1nc([C@H](Cc2cc(F)cc(F)c2)NC(=O)Cn2nc(C(F)(F)F)c3c2C(F)(F)[C@@H]2C[C@H]32)c(-c2ccc(Cl)c3c(NS(C)(=O)=O)nn(CC(F)(F)F)c23)c2c1CCC2)S(C)(=O)=O` (atropisomer, axis not shown; (aR)) [Example 1-1, N—((S)-1-((R)-4-(4-chloro-3-(methanesulfonamide)-1-(2,2,2-trifluoroethyl)-1H-indazol-7-yl)-1-(3-methyl-3-(methylsulfonyl)but-1-yn-1-yl)-6,7-dihydro-5H-cyclopenta[c]pyridin-3-yl)-2-(3,5-difluorophenyl)ethyl)-2-((3bS,4aR)-5,5-difluoro-3-(trifluoromethyl)-3b,4,4a,5-tetrahydro-1H-cyclopropa[3,4]cyclopenta[1,2-c]pyrazol-1-yl)acetamide] came in with an IC50 in data set [1] of 9 nM. In data set [1] (37° C., 2 h incubation), this compound showed an Imax of 100%. Also, the “atropisomer stability (change in purity by LC-MS)” value in data set [2] (heated at 40° C. for 1.0 h in acetonitrile) and in data set [2] (heated at 120° C. for 3.0 h in dimethyl sulfoxide) was “stable single-configuration compounds” each time.

For orientation: IC50 means the concentration that inhibits the measured activity by half. Read a high IC50 as weaker potency.

The values above are taken from patent US12428396B2, “Fused pyridine ring derivative, preparation method therefor, and pharmaceutical use thereof” (priority 2019, dated 2025).
